For assay [1], the target named is T1, PI3Kγ (Homo sapiens, UniProt P48736).
T1 construct: purchased Invitrogen PR8641C
The assay is described as follows: In vitro kinase activity (LabChip EZ Reader mobility shift), PI3Kγ. Conditions: kinase subtype PI3Kγ (p110γ). The class given is biochemical. As for the experimental part:
(§1) Compounds: the compounds prepared in above examples of the present invention, each of which was prepared to a concentration of 10 mM in DMSO and diluted to […], 100 nM, 10 nM, 1 nM, 0.1 nM, 0.01 nM successively.
(§2) Reagents: PI3Kα (p110α(p85a), purchased from Invitrogen, Cat.No. PV4788; PIK3Cδ (p110δ/p85a), purchased from Millipore, Cat.No. 14-604-K; PIK3Cβ (p110β), purchased from Millipore, Cat.No. 14-603-K; PIK3Cγ (pp110γ), purchased from Invitrogen, Cat.No. PR8641C; DMSO, purchased from Sigma; EDTA, purchased from Sigma; 1× kinase buffer (50 mM HEPES, pH 7.5, 0.0015% Brij-35, 10 mM MgCl2, 2 mM DTT), which was prepared before use; termination solution (100 mM HEPES, pH 7.5, 0.015% Brij-35, 0.2% Coating Reagent#3, 50 mM EDTA), which was prepared before use.
(§3) Instruments: LabChip EZ Reader purchased from Caliper, USA.
(§4) 2.1 10 μl solution of each concentration of each compound was placed into 96-well plate and 90 μl of 1× kinase buffer was added. DMSO control group and control group without kinase activity were set up, which all contained 10 μl DMSO and 90 μl of 1× kinase buffer. Each group was mixed well at room temperature for 10 min, and then 5 μl of each group was transferred to a 384-well plate.
(§5) 2.2 Kinases were dissolved in 1× kinase buffer to prepare a 2.5× kinase solution. 10 μl of 2.5× kinase solution was transferred to the 384-well plate containing compounds of different concentrations. 10 μl of 2.5× kinase solution was added to DMSO control group and 10 μl of 1× kinase buffer without kinase was added to control group without kinase activity. The plate was incubated at room temperature for 10 min.
(§6) 2.3 ATP and the polypeptide labeled with FAM were dissolved in 1× kinase buffer to prepare 2.5× substrate solution. Then 10 μl of 2.5× substrate solution was transferred to the 384-well plate and incubated at 28° C. for 1 h.
(§7) 2.4 25 μl of termination solution was added to each well to terminate the reaction.
(§8) 2.5 The plate was placed on the LabChip EZ Reader to read the data of conversion rate and inhibitory rate (1%) was calculated according to formula: I %=(Max−Com)/(Max−Min)×100, wherein Max was the conversion rate of DMSO control group, Min was the conversion rate of control group without kinase activity, Com was the conversion rate of compound treatment group. IC50 was fitted by XLfit processing of the data.

Assay [2] concerns SU-DHL-6 lymphoma cells. The assay is described as follows: In vitro cell activity, CellTiter-Glo cell viability, SU-DHL-6. The class given is cell-based. Particulars: Homo sapiens, SU-DHL-6 lymphoma cell line, 72 h. As for the experimental part:
(§9) Compounds: the compounds prepared in above examples of the present invention, each of which was prepared to a concentration of 10 mM in DMSO and diluted 3 times to 20000.00 nM, 6666.67 nM, 2222.22 nM, 740.74 nM, 246.91 nM, 27.43 nM, 9.14 nM, 3.05 nM successively.
(§10) The lymphoma cell lines SU-DHL-5 and SU-DHL-6 were purchased from the American Type Culture Collection (ATCC).
(§11) Reagents: PRMI-1640, purchased from Invitrogen (USA); FBS, purchased from Invitrogen (USA); EDTA, purchased from Sigma (USA); CellTiter-Glo® Luminescent Cell Viability Assay Kit, purchased from Progema (USA); Backseal membrane, purchased from Perkin Elmer (USA).
(§12) The cells were thawed in a 37° C. water bath and then transferred to 15 ml preheated medium. The cells were centrifuged at 1000 rpm for 5 min and the medium was discarded. The cells were resuspended in 15 ml fresh medium and transferred to T75 culture flask and incubated in an incubator at 37° C. with 5% CO2. The medium was replaced with fresh medium 24 h later.
(§13) The resuscitated cells above were transferred to a 50 ml sterile centrifuge tube and centrifuged at 1000 rpm for 5 min. The medium was discarded, and the cells were dispersed uniformly and counted. The appropriate cell concentration was adjusted in 15 ml fresh medium and added to T75 culture flask. The flask was incubated in an incubator at 37° C. with 5% CO2.
When the cells in the T75 culture flask grew to 1×10^5˜1×10^6 cells/ml, the cells were resuspended with fresh medium (RPMI-1640+20% FBS) and counted. […] 10 min later, the Assay plate was attached at the bottom by Backseal membrane and placed on Envison to detect the fluorescence reading. Cell survive (%) was calculated according to the formula: cell survive (%)=(Com−Min)/(Max−Min), wherein Max was the reading of solvent control group, Min was the reading of control group without cells, and Com was the reading of compound treatment group.

The subject of assay [3] is SU-DHL-5 lymphoma cells. Description: In vitro cell activity, CellTiter-Glo cell viability, SU-DHL-5. The format is cell-based. Particulars: Homo sapiens, SU-DHL-5 lymphoma cell line, 72 h. The procedure: as §9, §10, §11, §12, §13
When the cells in the T75 culture flask grew to 1×10^5˜1×10^6 cells/ml, the cells were resuspended with fresh medium (RPMI-1640+20% FBS) and counted. The resuspended cells were adjusted to the following eight concentrations: 1×10^4 cells/ml, 2×10^4 cells/ml, 3×10^4 cells/ml, 5×10^4 cells/ml, 8×10^4 cells/ml, 1×10^5 cells/ml, 1.5×10^5 cells/ml, and 2×10^5 cells/ml. The above cell suspensions were added to 96-well cell culture plate, 100 μl each well (1×10^3 cells/ml, 2×10^3 cells/ml, 3×10^3 cells/ml, 5×10^3 cells/ml, 8×10^3 cells/ml, 1×10^4 cells/ml, 1.5×10^4 cells/ml, and 2×10^4 cells/ml, respectively). Each concentration was done double in three plates. 72 h later, 100 μl CellTiter-Glo® Luminescent Cell Viability Assay buffer was added to test wells and shaken gently. 10 min later, the Assay plate was attached at the bottom by Backseal membrane and placed on Envison to detect the fluorescence reading. Cell survive (%) was calculated according to the formula: cell survive (%)=(Com−Min)/(Max−Min), wherein Max was the reading of solvent control group, Min was the reading of control group without cells, and Com was the reading of compound treatment group.
Background: ATP-based viability assays read luminescence as a measure of living cells.

Assay [4] has as its target T2, PI3Kδ (Homo sapiens, UniProt O00329).
T2 construct: purchased Millipore 14-604-K
Description: In vitro kinase activity (LabChip EZ Reader mobility shift), PI3Kδ. The format is biochemical. Particulars: kinase subtype PI3Kδ (p110δ/p85a). The procedure: as §1, §2, §3, §4, §5, §6, §7, §8

For assay [5], the target named is T3, PI3Kα (Homo sapiens, UniProt P42336).
T3 construct: purchased Invitrogen PV4788
Description: In vitro kinase activity (LabChip EZ Reader mobility shift), PI3Kα. The format is biochemical. Particulars: kinase subtype PI3Kα (p110α/p85a). As for the experimental part:
as §1, §2, §3, §4, §5, §6, §7, §8

For assay [6], the target named is T4, PI3Kβ (Homo sapiens, UniProt P42338).
T4 construct: purchased Millipore 14-603-K
Description: In vitro kinase activity (LabChip EZ Reader mobility shift), PI3Kβ. The format is biochemical. Particulars: kinase subtype PI3Kβ (p110β). The procedure:
as §1, §2, §3, §4, §5, §6, §7, §8

By IC50 is commonly meant the concentration that inhibits the measured activity by half.

T4 sequence (P42338 whole entry): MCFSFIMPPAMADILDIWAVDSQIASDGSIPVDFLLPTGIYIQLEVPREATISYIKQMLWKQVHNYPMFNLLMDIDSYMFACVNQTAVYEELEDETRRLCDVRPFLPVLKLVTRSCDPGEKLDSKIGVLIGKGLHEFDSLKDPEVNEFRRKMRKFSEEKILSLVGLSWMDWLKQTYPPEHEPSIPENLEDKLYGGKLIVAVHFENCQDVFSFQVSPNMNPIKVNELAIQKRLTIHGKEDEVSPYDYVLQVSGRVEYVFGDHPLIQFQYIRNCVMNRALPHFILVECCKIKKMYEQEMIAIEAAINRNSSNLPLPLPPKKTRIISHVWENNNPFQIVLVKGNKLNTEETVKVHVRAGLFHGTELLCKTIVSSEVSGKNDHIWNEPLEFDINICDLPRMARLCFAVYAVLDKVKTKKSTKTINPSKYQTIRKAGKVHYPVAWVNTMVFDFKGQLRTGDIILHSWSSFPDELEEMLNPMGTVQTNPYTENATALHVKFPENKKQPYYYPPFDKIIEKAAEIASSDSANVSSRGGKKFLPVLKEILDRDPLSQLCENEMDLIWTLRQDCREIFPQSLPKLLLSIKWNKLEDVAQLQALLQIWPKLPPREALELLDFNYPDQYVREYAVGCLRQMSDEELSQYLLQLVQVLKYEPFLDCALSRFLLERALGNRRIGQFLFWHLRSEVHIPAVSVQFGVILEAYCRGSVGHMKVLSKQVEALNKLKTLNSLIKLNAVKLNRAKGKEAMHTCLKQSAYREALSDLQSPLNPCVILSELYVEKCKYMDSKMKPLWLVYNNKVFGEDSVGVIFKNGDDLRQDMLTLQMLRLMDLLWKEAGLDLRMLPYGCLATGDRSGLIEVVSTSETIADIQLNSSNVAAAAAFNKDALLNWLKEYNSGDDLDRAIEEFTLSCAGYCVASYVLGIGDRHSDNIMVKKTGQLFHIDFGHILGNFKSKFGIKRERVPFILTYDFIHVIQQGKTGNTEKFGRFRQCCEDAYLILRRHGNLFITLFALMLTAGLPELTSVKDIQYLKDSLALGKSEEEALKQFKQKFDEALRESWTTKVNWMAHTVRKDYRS
T4 sequence (P27986 whole entry partner): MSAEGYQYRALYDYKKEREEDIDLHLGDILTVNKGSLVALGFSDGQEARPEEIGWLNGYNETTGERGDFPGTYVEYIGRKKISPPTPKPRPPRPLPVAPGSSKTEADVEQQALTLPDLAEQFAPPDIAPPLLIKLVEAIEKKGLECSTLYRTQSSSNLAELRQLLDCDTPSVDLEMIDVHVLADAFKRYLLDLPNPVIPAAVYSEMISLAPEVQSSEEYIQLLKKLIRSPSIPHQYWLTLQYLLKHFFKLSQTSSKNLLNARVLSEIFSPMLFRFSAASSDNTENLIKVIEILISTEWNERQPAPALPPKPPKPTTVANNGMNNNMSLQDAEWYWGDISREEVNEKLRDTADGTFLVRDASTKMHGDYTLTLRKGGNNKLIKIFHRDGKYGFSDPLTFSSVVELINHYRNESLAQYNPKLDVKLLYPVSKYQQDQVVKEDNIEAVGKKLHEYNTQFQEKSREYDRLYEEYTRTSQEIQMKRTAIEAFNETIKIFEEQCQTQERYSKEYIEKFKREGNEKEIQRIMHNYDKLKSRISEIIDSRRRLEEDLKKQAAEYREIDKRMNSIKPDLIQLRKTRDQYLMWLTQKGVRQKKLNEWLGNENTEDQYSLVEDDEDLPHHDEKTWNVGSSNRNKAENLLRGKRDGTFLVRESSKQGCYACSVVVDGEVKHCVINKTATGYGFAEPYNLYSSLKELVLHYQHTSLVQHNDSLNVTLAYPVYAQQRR
T3 sequence (P42336 whole entry): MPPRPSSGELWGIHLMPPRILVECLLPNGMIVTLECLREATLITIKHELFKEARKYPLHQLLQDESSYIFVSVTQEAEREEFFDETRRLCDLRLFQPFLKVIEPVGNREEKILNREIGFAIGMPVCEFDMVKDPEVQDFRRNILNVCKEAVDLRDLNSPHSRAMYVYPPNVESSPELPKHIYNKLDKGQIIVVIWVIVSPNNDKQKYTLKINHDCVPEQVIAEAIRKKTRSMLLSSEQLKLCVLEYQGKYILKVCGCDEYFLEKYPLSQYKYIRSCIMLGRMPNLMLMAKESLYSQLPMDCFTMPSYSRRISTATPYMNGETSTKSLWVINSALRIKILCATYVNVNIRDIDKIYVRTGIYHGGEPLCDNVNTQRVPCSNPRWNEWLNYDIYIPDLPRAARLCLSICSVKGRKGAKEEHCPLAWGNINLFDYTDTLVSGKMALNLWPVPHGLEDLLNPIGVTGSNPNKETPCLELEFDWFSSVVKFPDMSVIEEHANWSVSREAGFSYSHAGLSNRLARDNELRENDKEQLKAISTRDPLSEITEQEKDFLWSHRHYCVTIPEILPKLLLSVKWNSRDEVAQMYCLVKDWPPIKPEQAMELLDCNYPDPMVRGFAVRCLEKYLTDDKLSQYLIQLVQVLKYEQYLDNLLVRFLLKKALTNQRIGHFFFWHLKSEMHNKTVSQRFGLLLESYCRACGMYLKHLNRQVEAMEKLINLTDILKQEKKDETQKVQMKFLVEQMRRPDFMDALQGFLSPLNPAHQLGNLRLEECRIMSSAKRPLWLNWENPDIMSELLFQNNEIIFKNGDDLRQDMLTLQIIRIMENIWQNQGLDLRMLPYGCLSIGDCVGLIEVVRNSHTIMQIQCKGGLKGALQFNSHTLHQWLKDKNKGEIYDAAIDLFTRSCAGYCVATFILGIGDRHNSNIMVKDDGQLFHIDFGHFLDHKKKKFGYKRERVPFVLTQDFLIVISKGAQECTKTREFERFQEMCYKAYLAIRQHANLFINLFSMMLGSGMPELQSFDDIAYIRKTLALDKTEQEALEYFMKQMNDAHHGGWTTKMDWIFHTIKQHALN
T3 sequence (P27986 whole entry partner): as the sequence (P27986 whole entry partner) above
T2 sequence (O00329 whole entry): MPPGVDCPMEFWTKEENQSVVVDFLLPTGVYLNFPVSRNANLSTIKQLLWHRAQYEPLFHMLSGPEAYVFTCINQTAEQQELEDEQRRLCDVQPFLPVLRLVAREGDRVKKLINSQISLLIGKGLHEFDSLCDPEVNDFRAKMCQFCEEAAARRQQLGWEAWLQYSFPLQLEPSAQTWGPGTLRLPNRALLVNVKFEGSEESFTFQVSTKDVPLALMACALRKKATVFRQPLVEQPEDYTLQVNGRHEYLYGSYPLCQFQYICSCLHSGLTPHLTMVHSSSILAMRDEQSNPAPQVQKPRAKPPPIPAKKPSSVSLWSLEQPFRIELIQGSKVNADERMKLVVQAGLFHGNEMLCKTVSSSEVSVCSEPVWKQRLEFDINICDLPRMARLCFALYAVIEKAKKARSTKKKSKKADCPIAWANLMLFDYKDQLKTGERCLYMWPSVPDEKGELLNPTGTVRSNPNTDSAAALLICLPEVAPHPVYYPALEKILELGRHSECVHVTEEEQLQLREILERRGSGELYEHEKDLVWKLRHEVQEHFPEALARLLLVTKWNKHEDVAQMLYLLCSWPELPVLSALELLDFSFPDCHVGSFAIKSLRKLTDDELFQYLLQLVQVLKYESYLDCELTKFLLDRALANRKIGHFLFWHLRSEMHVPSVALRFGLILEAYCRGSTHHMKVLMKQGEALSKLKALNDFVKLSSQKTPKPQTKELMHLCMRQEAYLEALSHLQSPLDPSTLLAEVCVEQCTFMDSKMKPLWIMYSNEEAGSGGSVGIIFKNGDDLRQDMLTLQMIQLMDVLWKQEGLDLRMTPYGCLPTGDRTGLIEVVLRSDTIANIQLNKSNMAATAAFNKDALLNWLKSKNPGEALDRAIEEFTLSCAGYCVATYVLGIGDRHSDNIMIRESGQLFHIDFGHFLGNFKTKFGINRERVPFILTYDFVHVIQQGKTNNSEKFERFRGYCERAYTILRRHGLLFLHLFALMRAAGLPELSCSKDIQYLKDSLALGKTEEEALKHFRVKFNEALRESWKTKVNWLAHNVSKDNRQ
T2 sequence (P27986 whole entry partner): as the sequence (P27986 whole entry partner) above
T1 sequence (P48736 whole entry): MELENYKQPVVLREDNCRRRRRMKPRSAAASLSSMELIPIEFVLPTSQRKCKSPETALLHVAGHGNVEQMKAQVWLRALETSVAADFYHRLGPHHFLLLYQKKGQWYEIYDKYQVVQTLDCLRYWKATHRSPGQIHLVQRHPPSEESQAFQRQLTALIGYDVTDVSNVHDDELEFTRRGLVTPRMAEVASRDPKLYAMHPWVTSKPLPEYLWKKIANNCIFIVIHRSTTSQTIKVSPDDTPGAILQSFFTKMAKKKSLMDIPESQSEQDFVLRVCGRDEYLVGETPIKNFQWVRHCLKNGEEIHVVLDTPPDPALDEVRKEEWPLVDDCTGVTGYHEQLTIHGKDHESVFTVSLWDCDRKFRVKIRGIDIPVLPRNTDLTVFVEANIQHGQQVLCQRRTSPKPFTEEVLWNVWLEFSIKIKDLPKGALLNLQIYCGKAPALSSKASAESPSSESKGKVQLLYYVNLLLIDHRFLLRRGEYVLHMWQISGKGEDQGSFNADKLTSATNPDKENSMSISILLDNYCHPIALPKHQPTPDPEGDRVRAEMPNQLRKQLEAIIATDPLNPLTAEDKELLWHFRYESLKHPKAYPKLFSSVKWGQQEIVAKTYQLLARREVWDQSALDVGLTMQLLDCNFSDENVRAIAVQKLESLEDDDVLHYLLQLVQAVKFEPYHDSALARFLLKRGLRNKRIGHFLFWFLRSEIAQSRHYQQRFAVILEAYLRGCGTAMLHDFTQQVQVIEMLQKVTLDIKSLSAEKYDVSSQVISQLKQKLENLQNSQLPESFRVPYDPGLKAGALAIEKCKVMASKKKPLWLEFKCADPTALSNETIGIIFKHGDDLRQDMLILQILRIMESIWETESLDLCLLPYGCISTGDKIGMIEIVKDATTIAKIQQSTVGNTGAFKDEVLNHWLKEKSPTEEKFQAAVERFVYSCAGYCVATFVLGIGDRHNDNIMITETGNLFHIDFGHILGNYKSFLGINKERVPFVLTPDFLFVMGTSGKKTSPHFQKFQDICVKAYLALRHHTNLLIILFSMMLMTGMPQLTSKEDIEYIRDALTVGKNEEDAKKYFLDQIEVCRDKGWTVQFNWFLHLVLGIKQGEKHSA

As to `CC(Nc1nc(N)nc(N)c1C#N)c1c(-c2ccccc2)oc2ccccc2c1=O` (stereo not drawn) [Example 4, 2,4-Diamino-5-cyano-6-(1-(4-oxo-2-phenyl-4H-chromen-3-yl)ethylamino) pyrimidine], the IC50 in assay [1] was 83 nM; in assay [2] it was 0.014 µM; in assay [3] it was 1.41 µM; in assay [4], 9.2 nM; in assay [5], greater than 1000 nM; in assay [6] it was 546 nM.

For the compound `CC(Nc1ncnc(N)c1C#N)c1c(-c2ccccc2)[nH]c2ccccc2c1=O` (stereo not drawn) [Example 10, 4-Amino-5-cyano-6-((1-(4-oxo-2-phenyl-1,4-dihydroquinolin-3-yl)ethyl)amino) pyrimidine], the IC50 in assay [1] is 441 nM; in assay [2], 0.04 µM; in assay [3], 0.81 µM; in assay [4], 4.4 nM; in assay [5], 1070 nM; in assay [6], 569 nM.

Take `CCC(Nc1ncnc(N)c1C#N)c1c(-c2ccccc2)[nH]c2ccccc2c1=O` (stereo not drawn) [Example 13, 4-Amino-5-cyano-6-((1-(4-oxo-2-phenyl-1,4-dihydroquinolin-3-yl)propyl)amino)pyrimidine]: the IC50 in assay [1] is greater than 1000 nM; in assay [3], 1.11 µM; in assay [4] it was 5.8 nM; in assay [5], greater than 1000 nM; in assay [6] it was greater than 1000 nM.

As to `N#Cc1c(N)ncnc1NCc1c(-c2ccccc2)[nH]c2c(Cl)cccc2c1=O` [Example 14, 4-Amino-5-cyano-6-(((8-chloro-4-oxo-2-phenyl-1,4-dihydroquinolin-3-yl)methyl)amino)pyrimidine], the IC50 in assay [1] was 905 nM; in assay [2], 0.16 µM; in assay [3], 4.63 µM; in assay [4], 3.2 nM; in assay [5] it was greater than 1000 nM; in assay [6], 546 nM.

With `N#Cc1c(N)ncnc1NCc1c(-c2ccccc2)[nH]c2ccccc2c1=O` [Example 15], the IC50 is greater than 1000 nM in assay [1]; 4.94 µM in assay [3]; 21 nM in assay [4]; greater than 1000 nM in assay [5]; greater than 1000 nM in assay [6].

As for `N#Cc1c(N)nc(N)nc1NCc1c(-c2ccccc2)[nH]c2c(Cl)cccc2c1=O` [Example 18], the IC50 in assay [1] is 61 nM; in assay [3] it was 3.4 µM; in assay [4], 2 nM; in assay [5], 336 nM; in assay [6], 99 nM.

The values above are taken from patent publication US10077258B2, “Substituted pyrimidine compounds as phosphatidylinositol 3-kinase delta inhibitor and use thereof” (NANJING SANHOME PHARMACEUTICAL CO., LTD., priority 2015, dated 2018).
